Assay results: patent US20090169630A1, “Methods and Compositions for Controlled and Sustained Production and Delivery of Peroxides and/or Oxygen for Biological and Industrial Applications” (priority 2006, published 2009)

How the values were obtained:
hypoxemic rabbits = conditions: cited from earlier work
[1] = Permeation (diffusion) cell: hydrogen peroxide release from UHP/PFC slurry across a flat PLGA membrane; type: physicochemical; conditions: UHP/PFC slurry below, distilled water above
Text: A diffusion cell was constructed in order to measure the release rate of hydrogen peroxide from UHP and its diffusion across a selectively permeable membrane. UHP was dispersed in a PFC liquid and maintained in the bottom half of the cell. Rather than coat the particles, a flat PLGA membrane was used to separate the UHP from distilled water located in the top half of the cell. The PLGA membrane is permeable to water and hydrogen peroxide, but is a very effective barrier to permeation of the PFC. Thus, during the experiment, water diffused across the PLGA membrane and into the PFC/UHP slurry in the bottom half of the cell. Hydrogen peroxide was generated when the water contacted the UHP. The hydrogen peroxide then diffused through the PLGA membrane into the top half of the diffusion cell.
The amount of hydrogen peroxide in the top half of the cell was monitored colorimetrically by testing samples that were periodically removed from the water-rich phase in the top half of the cell. […]

Row | Compound | rise in arterial PO2 (hypoxemic rabbits; hypoxemic rabbits, intravenous UHP) | outcome at amounts that would supply the oxygen consumption needs of a rabbit (hypoxemic rabbits; rabbits, high UHP amounts) | diffusion through the PLGA membrane [1]
1 | NC(N)=O.OO [UHP, urea hydrogen peroxide] | 10 mmHg | died of gas emboli | 
2 | NC(N)=O [urea] |  |  | did not diffuse through the membrane
